This is an account of results in patent US20260234164A1, “BIPHENYL COMPOUND AS IMMUNOMODULATOR, PREPARATION METHOD THEREFOR AND USE THEREOF” (SHENZHEN CHIPSCREEN BIOSCIENCES CO., LTD., priority 2021, published 2026).

Series [1] has as its system PD-1/PD-L1-mediated T cell activation inhibitory signal. Nature of the series: CHO-PD-L1-CD3L / Jurkat-PD-1-NFAT co-culture luciferase reporter assay. It counts as cell-based. Particulars: Homo sapiens, co-culture 6 h, read-out: EC50 blocking PD-1/PD-L1-mediated T cell activation inhibitory signal. On the procedure:
In order to detect the effect of the interaction between PD-1 and PD-L1 on T cell activation signals in the immune response, CHO-PD-L1-CD3L cells stably expressing human PD-L1 molecules and anti-CD3 single-chain antibody (ScFv) and Jurkat-PD-1-NFAT cells stably expressing human PD-1 molecule and NFAT reporter gene were constructed. When the two kinds of cells were co-incubated, the binding of anti-CD3ScFv on the surface of CHO cells and the membrane CD3 molecules of Jurkat cells would transmit an activation signal to Jurkat cells, but simultaneously, the binding of PD-L1 on the surface of CHO cells and PD-1 molecules on the surface of Jurkat cells would transmit an inhibitory signal inward to prevent expression of the luciferase reporter gene. When immune checkpoint antibodies or small molecule inhibitors were added, the binding of PD-1 and PD-L1 was blocked, the NFAT pathway activated by T cell activation signal mediated by cross-linking of CD3ScFv antibody and CD3 was no longer affected by the inhibitory signal, and the downstream luciferase reporter gene started to be expressed. A chemiluminescent signal proportional to reporter gene activation was detected by adding a catalytic substrate.
CHO-PD-L1-CD3L cells expressing human PD-L1 molecule and anti-CD3 single-chain antibody (ScFv) and Jurkat-PD-1-NFAT cells stably expressing human PD-1 molecule and NFAT reporter gene were independently constructed and provided by Dr. Chen Bo (KeyMed Bioscience (Chengdu) Co., Ltd.). Puromycin (Cat #540411) and Hygromycin B (Cat #V900372) for stable culture of transfected cells were purchased from Sigma, PMA (Cat #P1585) was purchased from Sigma, anti-human PD-L1 antibody (Cat #GMP-A066) was purchased from Novoprotein Company. Luciferase substrate solution (Cat #E6485) and luciferase-specific cell lysis solution 5× (Cat #E1531) were purchased from Promega. Fluorescence detection instrument Tecan (Spark 10M) was purchased from Switzerland Tecan Company.
(1) The day before the experiment, 100 μL of CHO-PD-L1-CD3L cells were inoculated in each well of a 96-well cell culture plate (about 4×10^4 cells/well) with a medium of DMEM/F12 containing 10% FBS, 8 μg/mL puromycin and 200 μg/mL hygromycin B, and cultured overnight at 37° C.
(2) The test compounds were diluted with 0.1% PBST into different concentration gradients, added into 96-well plates, and pre-incubated for 30 min. Jurkat-PD-1-NFAT cell count was adjusted to 2×10^5 cells/mL with the RPMI 1640 complete medium containing 10% FBS, […]8 μg/mL puromycin and 200 μg/mL hygromycin B. 100 ng/mL PMA (the stock solution was prepared with DMSO to a concentration of 10 mg/mL) was added to amplify T cell activation signal. 100 μL of the above Jurkat-PD-1-NFAT cells was added to each well of the 96-well plate for co-culture.
(3) When detecting the reaction, a control group was provided, including a solvent control without adding test compounds and a positive control with addition of anti-human PD-1 antibody as the experimental system. All detections were performed with duplicates.
(4) After continuous incubation at 37° C. for 6 h, 40 μL of 5× cell lysate was directly added, and mixed well. The plate was placed at room temperature for 10 min to completely lyse the cells. 50 μL of the lysed cell solution was transferred to a fluorescence detection plate, and added with 30 μL of luciferase substrate solution. The chemiluminescence detection program on the fluorescence detector was immediately selected for detection.
(5) The inhibition rate of T cell activation signal at the cellular level of the test compounds was calculated as follows: Inhibition rate of T cell activation signal (%)=(the original value of chemiluminescence in the detection well−solvent control)/(the highest original value of chemiluminescence detected in the compound detection well−solvent control)×100%. […]
A general note: A reporter such as luciferase makes a cellular process visible.

A short description of series [2]: Pharmacokinetic assay after repeated oral administration. Type of series: in vivo, B-hPD-1/hPD-L1 mice. Particulars: female, B-hPD-1/hPD-L1, mouse; plasma, 50 mg/kg oral once a day, after administration on the 18th day. On the procedure:
Twenty-four female B-hPD-1/hPD-L1 mice aged 6-8 weeks were purchased from Biocytogen Jiangsu Gene Biotechnology Co., Ltd. The mice were randomly divided into 4 groups, 6 mice in each group. The test compounds were prepared in a vehicle containing 5% DMSO, 60% PEG400 and 35% purified water, including I-1 and 3 control molecules Example 17, Compound 14 (INCB086550), and Example 180. The compounds were administered orally at 50 mg/kg, once a day. The blood was collected alternately through the fundus venous plexus after the administration on the 18th day. The blood collection time points were 15 min, 30 min, 1 h, 2 h, 4 h, 8h, 24 h and 32h. About 0.1 mL of blood was collected in a centrifuge tube (anticoagulated with sodium heparin), and centrifuged at 5000 rpm for 5 min. Then the plasma was separated, and frozen at −20° C. for later detection. After the plasma samples were processed, the concentration of the compounds in the plasma was determined by liquid chromatography-mass spectrometry (LC-MS/MS). The pharmacokinetic parameters were calculated using Phoenix WinNonlin 7.0.

Series [3] in a line: Tumor tissue distribution assay in MC38-PD-L1 tumor-bearing mice. It counts as in vivo, B-hPD-1/hPD-L1 humanized mice. Conditions: 50 mg/kg oral once/day. An excerpt:
16 B-hPD-1/hPD-L1 humanized female mice, aged 6-8 weeks were purchased from Biocytogen Jiangsu Gene Biotechnology Co., Ltd. After 1 week of adaptation, the mice were subcutaneously inoculated with MC38-PD-L1 cells at 2×10^6 cells/site. After the tumor grew to about […], the mice were divided into 4 groups, 4 mice in each group. The test compounds were formulated in a vehicle containing 5% DMSO, 60% PEG400 and 35% purified water, including I-1 and 3 control molecules Example 17, Compound 14 (INCB086550), and Example 180. The compounds were orally administered at 50 mg/kg, once/day. The blood and tumor tissue were collected 4 h and 24 h after administration on the 18th day. A certain amount of tissue was weighed, and added with phosphate-buffered saline (PBS) solution for homogenization. After the sample was processed, it was analyzed by LC-MS/MS to determine the concentration of the compound in plasma and tissue.

The term AUC(0-t) denotes the area under the concentration-time curve up to a stated or last time point. A higher AUC(0-t) goes with high exposure. As usually defined, the MRT is a mean duration of stay, worked out from the concentration-time curve. One may read the half-life as the time in which the quantity being followed falls by half.

For the compound `[2H]C([2H])([2H])OCC12CCC(CCN3CCc4c(nc(C(=O)Nc5cccc(-c6cccc(NC(=O)c7nc8c(n7C)CCN(CCC79CCC(C(=O)O)(CC7)C9)C8)c6Cl)c5Cl)n4C)C3)(CC1)C2` [Compound I-1, 4-(2-(2-((2,2′-dichloro-3′-(5-(2-(4-((methoxy-d3)methyl)bicyclo[2.2.1]heptane-1-yl)ethyl)-1-methyl-4,5,6,7-tetrahydro-1H-imidazo[4,5-c]pyridine-2-carboxamido)-[1,1′-biphenyl]-3-yl)carbamoyl)-1-methyl-1,4,6,7-tetrahydro-5H-imidazo[4,5-c]pyridin-5-yl)ethyl)bicyclo[2.2.1]heptane-1-carboxylic acid], the EC50 in series [1] was found to be 13.8 nM. In series [2], this compound gave an AUC(0-t) of 123 µg·h/mL, an MRT of 13.5 h and a half-life of 10.3 h. For the same compound, the “Ratio of I-1 to control molecule (tumor tissue concentration)” value in series [3] (4 h after administration on the 18th day) was determined as 1.0. For the same compound, the “Ratio of I-1 to control molecule (tumor tissue concentration)” value in series [3] (24 h after administration on the 18th day) is on record as 1.0. The compound further displayed a concentration at 4 h in series [3] (female, B-hPD-1/hPD-L1 humanized, mouse, tumor tissue, 4 h after administration on the 18th day) of 39200 ng/g. The concentration at 24 h in series [3] (female, B-hPD-1/hPD-L1 humanized, mouse, tumor tissue, 24 h after administration on the 18th day) came to 27200 ng/g.

In the case of `[2H]C([2H])([2H])n1c(C(=O)Nc2cccc(-c3cccc(NC(=O)c4nc5c(n4C([2H])([2H])[2H])CCN(CCC46CCC(C(=O)O)(CC4)C6)C5)c3Cl)c2C)nc2c1CCN(CCC13CCC(COC)(CC1)C3)C2` [Compound I-10, 4-(2-(2-((2-chloro-3′-(5-(2-(4-(methoxymethyl)bicyclo[2.2.1]heptane-1-yl)ethyl)-1-(methyl-d3)-4,5,6,7-tetrahydro-1H-imidazo[4,5-c]pyridine-2-carboxamido)-2′-methyl-[1,1′-biphenyl]-3-yl)carbamoyl)-1-(methyl-d3)-1,4,6,7-tetrahydro-5H-imidazo[4,5-c]pyridin-5-yl)ethyl)bicyclo[2.2.1]heptane-1-carboxylic acid], in series [1], the EC50 was 29.9 nM.

Consider `[2H]C([2H])([2H])OCC12CCC(CCN3CCc4c(nc(C(=O)Nc5cccc(-c6cccc(NC(=O)c7nc8c(n7C)CCN(CCC79CCC(C(=O)O)(CC7)C9)C8)c6C)c5Cl)n4C)C3)(CC1)C2` [Compound I-3, 4-(2-(2-((2′-chloro-3′-(5-(2-(4-((methoxy-d3)methyl)bicyclo[2.2.1]heptane-1-yl)ethyl)-1-methyl-4,5,6,7-tetrahydro-1H-imidazo[4,5-c]pyridine-2-carboxamido)-2-methyl-[1,1′-biphenyl]-3-yl)carbamoyl)-1-methyl-1,4,6,7-tetrahydro-5H-imidazo[4,5-c]pyridin-5-yl)ethyl)bicyclo[2.2.1]heptane-1-carboxylic acid], for which, in series [1], the EC50 amounted to 10.6 nM.

On to `[2H]C([2H])([2H])n1c(C(=O)Nc2cccc(-c3cccc(NC(=O)c4nc5c(n4C([2H])([2H])[2H])CCN(CCC46CCC(C(=O)O)(CC4)C6)C5)c3Cl)c2Cl)nc2c1CCN(CCC13CCC(COC)(CC1)C3)C2` [Compound I-6, 4-(2-(2-((2,2′-dichloro-3′-(5-(2-(4-((methoxy)methyl)bicyclo[2.2.1]heptane-1-yl)ethyl)-1-(methyl-d3)-4,5,6,7-tetrahydro-1H-imidazo[4,5-c]pyridine-2-carboxamido)-[1,1′-biphenyl]-3-yl)carbamoyl)-1-(methyl-d3)-1,4,6,7-tetrahydro-5H-imidazo[4,5-c]pyridin-5-yl)ethyl)bicyclo[2.2.1]heptane-1-carboxylic acid], for which the EC50 in series [1] was found to be 12.5 nM.

`[2H]C([2H])([2H])OCC12CCC(CCN3CCc4c(nc(C(=O)Nc5cccc(-c6cccc(NC(=O)c7nc8c(n7C([2H])([2H])[2H])CCN(CCC79CCC(C(=O)O)(CC7)C9)C8)c6Cl)c5C)n4C([2H])([2H])[2H])C3)(CC1)C2` [Compound I-9, 4-(2-(2-((2-chloro-3′-(5-(2-(4-((methoxy-d3)methyl)bicyclo[2.2.1]heptane-1-yl)ethyl)-1-(methyl-d3)-4,5,6,7-tetrahydro-1H-imidazo[4,5-c]pyridine-2-carboxamido)-2′-methyl-[1,1′-biphenyl]-3-yl)carbamoyl)-1-(methyl-d3)-1,4,6,7-tetrahydro-5H-imidazo[4,5-c]pyridin-5-yl)ethyl)bicyclo[2.2.1]heptane-1-carboxylic acid]: in series [1], the EC50 was determined as 28.1 nM.
